Results reported in patent publication US20230012368A1 (Hoffmann-La Roche Inc., priority 2018, published 2023).
Structures can show the parent of a compound that is named as a salt.

Test system: Acinetobacter baumannii ATCC 17978
Experiment: Antimicrobial susceptibility testing: 90% growth inhibitory concentration (IC90) determination
Type: cell-based
Settings: 90% growth inhibitory concentration; Acinetobacter baumannii ATCC17978; Iso-Sensitest broth, OD 600 nm over 16h; read-out: ATCC17978 IC90
In short: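 Compounds serially twofold diluted (e.g. 50 to 0.097 μM final) in Iso-Sensitest broth, inoculated at ~5×10^(5) CFU/ml, incubated at 35±2° C. OD600 read every 20 minutes over 16h. IC90 taken as concentration inhibiting 90% of growth during logarithmic phase.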

Row | Compound | IC90 [nM]
1 | CCc1cc(Nc2nccn3c(-c4ccc(OC)c(F)c4F)cnc23)ccc1C(=O)N[C@@H](CN)c1ccccc1 [Example 321, N-[(1R)-2-amino-1-phenylethyl]-4-[[3-(2,3-difluoro-4-methoxyphenyl)imidazo[1,2-a]pyrazin-8-yl]amino]-2-ethylbenzamide; hydrochloride] | 4000
2 | Cc1cc(Nc2nccn3c(-c4ccc(OC(F)F)c(F)c4)cnc23)ccc1C(=O)N(C)CCC1CCNCC1 [Example 89, 4-((3-(4-(difluoromethoxy)-3-fluorophenyl)imidazo [1,2-a]pyrazin-8-yl)amino)-N,2-dimethyl-N-(2-(piperidin-4-yl)ethyl)benzamide hydrochloride] | 230
3 | Cc1cc(Nc2nccn3c(-c4ccc(OCC#N)c(F)c4F)cnc23)ccc1C(=O)NCCNC(=O)[C@@H]1CCNC[C@@H]1O [Example 451, (3R,4R)-N-[2-[[4-[[3-[4-(cyanomethoxy)-2,3-difluoro-phenyl]imidazo[1,2-a]pyrazin-8-yl]amino]-2-methyl-benzoyl]amino]ethyl]-3-hydroxy-piperidine-4-carboxamide; formic acid] | 760

Same assay, conditions: Acinetobacter baumannii, ATCC17978, 16 h, 90% growth inhibitory concentration; Acinetobacter baumannii ATCC17978; Iso-Sensitest broth, OD 600 nm over 16h; read-out: ATCC17978 IC90

Row | Compound | IC90 [nM]
4 | Cc1cc(Nc2nccn3c(-c4ccc(OCC#N)c(F)c4F)cnc23)ccc1C(=O)NC[C@H](N)CNC(=O)[C@@H]1C[C@@H](O)CN1 [Example 470, (2S,4R)-N-[(2S)-2-amino-3-[[4-[[3-[4-(cyanomethoxy)-2,3-difluoro-phenyl]imidazo[1,2-a]pyrazin-8-yl]amino]-2-methyl-benzoyl]amino]propyl]-4-hydroxy-pyrrolidine-2-carboxamide; formic acid] | 600
5 | Cc1cc(Nc2nccn3c(-c4ccc(OC(F)F)cc4)cnc23)ccc1C(=O)N(C)CC(=O)N(C)CC(=O)N1CCN(C)CC1 [Example 171, 4-[[3-[4-(difluoromethoxy)phenyl]im-idazo[1,2-a]pyrazin-8-yl]amino]-N,2-dimethyl-N-[2-[methyl-[2-(4-methylpiperazin-1-yl)-2-oxoethyl]amino]-2-oxoethyl]benzamide] | 3600
6 | Cc1cc(Nc2nccn3c(-c4ccc(OC(F)F)cc4)cnc23)ccc1C(=O)N(C)CCCCN [Example 200, N-(4-aminobutyl)-4-[[3-[4-(difluoromethoxy)phenyl]im-idazo[1,2-a]pyrazin-8-yl]amino]-N,2-dimethylbenzamide;hydrochlo-ride] | 440
7 | COc1ccc(-c2cnc3c(Nc4ccc5c(c4)CCNC5=O)nccn23)c(Cl)c1 [Example 179, 6-[[3-(2-chloro-4-methoxyphenyl)imidazo[1,2-a]pyrazin-8-yl]amino]-3,4-dihydro-2H-isoquinolin-1-one] | 1700
8 | COc1ccc(-c2cnc3c(Nc4ccc(C(=O)N(C)C)c(C)c4)nccn23)c(F)c1F [Example 1, 4-((3-(2,3-difluoro-4-methoxyphenyl)imidazo[1,2-a]pyrazin-8-yl)amino)-N,N,2-trimethylbenzamide] | 120
9 | COc1ccc(-c2cnc3c(Nc4ccc(C(=O)N(C)CCCCC(=O)N5CCNCC5)c(C)c4)nccn23)cc1F [Example 273, 4-[[3-(3-fluoro-4-methoxyphenyl)imidazo[1,2-a]pyrazin-8-yl]amino]-N,2-dimethyl-N-(5-oxo-5-piperazin-1-ylpentyl)benzamide] | 180
10 | COc1ccc(-c2cnc3c(Nc4ccc(C(=O)NCCN5CCNCC5=O)c(C)c4)nccn23)cc1F [Example 248, 4-[[3-(3-fluoro-4-methoxyphenyl)imidazo[1,2-a]pyrazin-8-yl]amino]-2-methyl-N-[2-(2-oxopiperazin-1-yl)ethyl]benzamide;hydrochlo-ride] | 2400
11 | COc1ccc(-c2cnc3c(Nc4ccc(C(=O)N(CCN5CCNCC5)CC(F)F)c(C)c4)nccn23)cc1F [Example 175, N-(2,2-difluoroethyl)-4-[[3-(3-fluoro-4-methoxyphenyl)imidazo[1,2-a]pyrazin-8-yl]amino]-2-methyl-N-(2-piperazin-1-ylethyl)benzamide;hydrochlo-ride] | 2300
12 | COc1ccc(-c2cnc3c(Nc4ccc(C(=O)N[C@H](C)CNC(C)=N)c(Cl)c4)nccn23)c(F)c1F [Example 501, 2-chloro-4-[[3-(2,3-difluoro-4-methoxyphenyl)imidazo[1,2-a]pyrazin-8-yl]amino]-#N!- [(2#R!)-1-(ethanimidoylamino)propan-2-yl]benzamide] | 69
13 | COc1ccc(-c2cnc3c(Nc4ccc(C(=O)N(C)CCn5ccnc5)c(C)c4)nccn23)cc1F [Example 105, 4-[[3-(3-fluoro-4-methoxy-phenyl)imidazo[1,2-a]pyrazin-8-yl]amino]-N-(2-imidazol-1-ylethyl)-N,2-dimethyl-benzamide] | 820
14 | Cc1cc(Nc2nccn3c(-c4ccc(OC(F)F)cc4)cnc23)ccc1C(=O)N(C)CCCSc1nnnn1C [Example 178, 4-[[3-[4-(difluoromethoxy)phenyl]im-dazo[1,2-a]pyrazin-8-yl]amino]-N,2-dimethyl-N-[3-(1-methyltetrazol-5-yl)sulfanylpropyl]benzamide] | 1000

Now from value to compound:

Row | IC90 [nM] | Compound
15 | 210 | CCc1cc(Nc2nccn3c(-c4ccc(OC)c(F)c4F)cnc23)ccc1C(=O)NCC(O)CNC(=O)CCCN (centres unmarked) [Example 410, N-(3-(4-aminobutanamido)-2-hydroxypropyl)-4-((3-(2,3-difluoro-4-methoxyphenyl)imidazo[1,2-a]pyrazin-8-yl)amino)-2-ethylbenzamide hydrochloride]
16 | 660 | CCc1cc(Nc2nccn3c(-c4ccc(Oc5ccncn5)c(F)c4F)cnc23)ccc1C(=O)N[C@@H](C)CNC(=O)[C@H](N)CCNC(=N)N [Example 458, N-[(1S)-2-[[(2R)-2-amino-4-guanidino-butanoyl]amino]-1-methyl-ethyl]-4-[[3-(2,3-difluoro-4-pyrimidin-4-yloxy-phenyl)imidazo[1,2-a]pyrazin-8-yl]amino]-2-ethyl-benzamide; formic acid]
17 | 410 | CCc1cc(Nc2nccn3c(-c4ccc(OC)c(F)c4F)cnc23)ccc1C(=O)NCCNC(=O)[C@@H](N)CCCN [Example 397, N-[2-[[(2S)-2,5-diaminopentanoyl]amino]eth-yl]-4-[[3-(2,3-difluoro-4-methoxy-phenyl)imidazo[1,2-a]pyrazin-8-yl]amino]-2-ethyl-benzamide; formic acid]
18 | 480 | C#CCOc1ccc(-c2cnc3c(Nc4ccc(C(=O)N[C@H](C)CN)c(CC)c4)nccn23)c(F)c1F [Example 460, N-[(1R)-2-amino-1-methyl-ethyl]-4-[[3-(2,3-difluoro-4-prop-2-ynoxy-phenyl)imidazo[1,2-a]pyrazin-8-yl]amino]-2-ethyl-benzamide]
19 | 730 | CCc1cc(Nc2nccn3c(-c4ccc(OC)c(F)c4F)cnc23)ccc1C(=O)N[C@@H](C)CNC(=O)[C@@H](N)CCCNC(=N)N [Example 342, N-[(2S)-1-[[(2S)-2-amino-5-carbamimidamidopentanoyl]amino]propan-2-yl]-4-[[3-(2,3-difluoro-4-methoxyphenyl)imidazo[1,2-a]pyrazin-8-yl]amino]-2-ethylbenzamide; formic acid]
20 | 340 | CCc1cc(Nc2nccn3c(-c4ccc(OC)c(F)c4F)cnc23)ccc1C(=O)NCCCNC(=O)[C@H](CCCNC(=N)N)NC(=O)[C@@H](N)CCC(=O)O [Example 156, (S)-4-amino-5-(((S)-1-((3-(4-((3-(2,3-difluoro-4-methoxyphenyl)imidazo[1,2-a]pyrazin-8-yl)amino)-2-ethylbenzamido)propyl)amino)-5-guanidino-1-oxopentan-2-yl)amino)-5-oxopentanoic acid trihydrochloride]
21 | 1100 | COc1ccc(-c2cnc3c(Nc4ccc(C(=O)NCCNC(=O)N5CCN[C@H](C(=O)O)C5)c(C)c4)nccn23)c(F)c1F [Example 348, (2S)-4-[2-[[4-[[3-(2,3-difluoro-4-methoxyphenyl)imidazo[1,2-a]pyrazin-8-yl]amino]-2-methylbenzoyl]amino]ethyl-carbamoyl]piperazine-2-carboxylic acid;formic acid]
22 | 190 | CCc1cc(Nc2nccn3c(-c4ccc(Oc5ccncn5)c(F)c4F)cnc23)ccc1C(=O)NCCCNC(=O)CCCNCCCN [Example 563, N-[3-[4-(3-aminopropylamino)butanoyl-amino]propyl]-4-[[3-(2,3-difluoro-4-pyrimidin-4-yloxy-phenyl)imidazo[1,2-a]pyrazin-8-yl]amino]-2-ethyl-benzamide; formic acid]
23 | 140 | Cn1ccc(CNC(=O)c2ccc(Nc3nccn4c(-c5ccc(OCC#N)c(F)c5F)cnc34)cc2Cl)cc1=O [Example 86, 2-chloro-4-[[3-[4-(cyanomethoxy)-2,3-difluoro-phenyl]imidazo[1,2-a]pyrazin-8-yl]amino]-N-[(1-methyl-2-oxo-4-pyridyl)methyl] benzamide]
24 | 110 | CCc1cc(Nc2nccn3c(-c4ccc(OC(F)F)c(F)c4F)cnc23)ccc1C(=O)NCCCNC(=O)CN(C)C [Example 324, 4-[[3-[4-(difluoromethoxy)-2,3-difluorophenyl]imidazo[1,2-a]pyrazin-8-yl]amino]-N-[3-[[2-(dimethylamino)acetyl]amino]propyl]-2-ethylbenzamide]
25 | 280 | CCc1cc(Nc2nccn3c(-c4ccc(OC)c(F)c4F)cnc23)ccc1C(=O)NC1(CNC(=O)[C@@H](N)CCCCN)CC1 [Example 484, N-[1-[[[(2S)-2,6-diaminohexanoyl]amino]meth-yl]cyclopropyl]-4-[[3-(2,3-difluoro-4-methoxy-phenyl)imidazo[1,2-a]pyrazin-8-yl]amino]-2-ethyl-benzamide]
26 | 360 | CCc1cc(Nc2nccn3c(-c4ccc(OC)c(F)c4F)cnc23)ccc1C(=O)N[C@H](C)CCN [Example 303, N-[(2R)-4-aminobutan-2-yl]-4-[[3-(2,3-difluoro-4-methoxyphenyl)imidazo[1,2-a]pyrazin-8-yl]amino]-2-ethylbenzamide;hydrochloride]
